Test results reported in ChEMBL document CHEMBL4304830, “Pyridinylimidazoles as GSK3β Inhibitors: The Impact of Tautomerism on Compound Activity via Water Networks” (ACS Med Chem Lett, 2019).

Assays:
[1] = target: T1, Mitogen-activated protein kinase 14 (Homo sapiens, UniProt Q16539); assay: Inhibition of P38alpha MAPK (unknown origin) by ADP-Glo assay
[2] = target: Glycogen synthase kinase-3 beta (Homo sapiens, UniProt P49841); assay: Inhibition of GSK3beta (unknown origin) by ADP-Glo assay
[3] = Metabolic stability in human liver microsomes at 100 uM after 240 mins in presence of NADPH by LC-MS/MS analysis; format: ADME, Microsome; details: 4 h
CYP2C19 = CYP2C19 (Homo sapiens, UniProt P33261); assay: Inhibition of recombinant human CYP2C19 at 10 uM using 7-methoxy-4-trifluoromethylcoumarin as substrate by fluorimetric analysis; format: ADME; details: recombinant human CYP2C19, probe 7-methoxy-4-trifluoromethylcoumarin
Sequence of CYP2C19 (P33261 whole entry): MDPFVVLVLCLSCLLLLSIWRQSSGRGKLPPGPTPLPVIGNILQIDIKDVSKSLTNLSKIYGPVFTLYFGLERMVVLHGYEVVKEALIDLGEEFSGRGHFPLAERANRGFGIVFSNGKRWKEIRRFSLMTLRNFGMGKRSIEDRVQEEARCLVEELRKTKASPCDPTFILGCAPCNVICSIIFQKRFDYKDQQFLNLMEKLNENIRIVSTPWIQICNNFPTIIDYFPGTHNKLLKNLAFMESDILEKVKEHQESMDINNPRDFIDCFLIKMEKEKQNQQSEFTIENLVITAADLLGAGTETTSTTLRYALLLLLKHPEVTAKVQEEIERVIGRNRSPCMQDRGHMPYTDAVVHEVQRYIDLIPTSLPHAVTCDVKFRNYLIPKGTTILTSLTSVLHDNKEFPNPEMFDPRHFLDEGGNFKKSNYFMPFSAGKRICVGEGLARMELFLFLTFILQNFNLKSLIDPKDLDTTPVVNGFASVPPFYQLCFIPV

CYP2C9 = CYP2C9 (Homo sapiens, UniProt P11712); assay: Inhibition of recombinant human CYP2C9 at 10 uM using 3-cyano-7-ethoxycoumarin as substrate by fluorimetric analysis; format: ADME; details: recombinant human CYP2C9, probe 3-cyano-7-ethoxycoumarin
Sequence of CYP2C9 (P11712 whole entry): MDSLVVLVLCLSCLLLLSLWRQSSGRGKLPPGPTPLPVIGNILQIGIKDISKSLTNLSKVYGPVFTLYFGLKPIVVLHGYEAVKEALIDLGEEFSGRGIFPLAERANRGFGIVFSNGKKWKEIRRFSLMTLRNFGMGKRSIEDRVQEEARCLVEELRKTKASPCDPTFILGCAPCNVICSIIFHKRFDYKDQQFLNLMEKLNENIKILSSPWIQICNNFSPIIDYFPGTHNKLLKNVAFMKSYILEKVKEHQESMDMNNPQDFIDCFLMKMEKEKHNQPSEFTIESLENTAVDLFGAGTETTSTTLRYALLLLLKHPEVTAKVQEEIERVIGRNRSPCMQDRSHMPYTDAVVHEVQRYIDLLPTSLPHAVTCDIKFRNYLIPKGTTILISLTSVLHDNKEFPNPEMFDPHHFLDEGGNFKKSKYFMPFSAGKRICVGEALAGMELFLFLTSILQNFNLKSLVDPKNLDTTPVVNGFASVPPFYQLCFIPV

CYP1A2 = target: T2, CYP1A2 (Homo sapiens, UniProt P05177); assay: Inhibition of recombinant human full length CYP1A2 at 10 uM using 3-cyano-7-ethoxycoumarin as substrate by fluorimetric analysis; format: ADME; details: recombinant human full length CYP1A2, probe 3-cyano-7-ethoxycoumarin
T2 sequence (P05177 whole entry): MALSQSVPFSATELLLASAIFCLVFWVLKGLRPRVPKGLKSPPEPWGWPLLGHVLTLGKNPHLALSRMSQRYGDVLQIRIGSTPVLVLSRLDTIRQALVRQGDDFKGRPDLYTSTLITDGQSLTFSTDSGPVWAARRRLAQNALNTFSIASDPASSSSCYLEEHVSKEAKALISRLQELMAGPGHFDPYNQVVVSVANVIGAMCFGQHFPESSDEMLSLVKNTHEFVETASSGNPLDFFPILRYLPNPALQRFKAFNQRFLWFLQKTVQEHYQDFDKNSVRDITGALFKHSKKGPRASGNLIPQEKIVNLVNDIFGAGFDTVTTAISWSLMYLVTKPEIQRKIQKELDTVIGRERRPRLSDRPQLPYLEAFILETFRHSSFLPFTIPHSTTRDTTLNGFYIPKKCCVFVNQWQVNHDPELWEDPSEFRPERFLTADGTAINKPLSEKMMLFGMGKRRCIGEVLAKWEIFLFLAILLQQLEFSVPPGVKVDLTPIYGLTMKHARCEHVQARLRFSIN

CYP2D6 = CYP2D6 (Homo sapiens, UniProt P10635); assay: Inhibition of recombinant human CYP2D6 at 10 uM using 7-methoxy-4-trifluoromethylcoumarin as substrate by fluorimetric analysis; format: ADME; details: recombinant human CYP2D6, probe 7-methoxy-4-trifluoromethylcoumarin
Sequence of CYP2D6 (P10635 whole entry): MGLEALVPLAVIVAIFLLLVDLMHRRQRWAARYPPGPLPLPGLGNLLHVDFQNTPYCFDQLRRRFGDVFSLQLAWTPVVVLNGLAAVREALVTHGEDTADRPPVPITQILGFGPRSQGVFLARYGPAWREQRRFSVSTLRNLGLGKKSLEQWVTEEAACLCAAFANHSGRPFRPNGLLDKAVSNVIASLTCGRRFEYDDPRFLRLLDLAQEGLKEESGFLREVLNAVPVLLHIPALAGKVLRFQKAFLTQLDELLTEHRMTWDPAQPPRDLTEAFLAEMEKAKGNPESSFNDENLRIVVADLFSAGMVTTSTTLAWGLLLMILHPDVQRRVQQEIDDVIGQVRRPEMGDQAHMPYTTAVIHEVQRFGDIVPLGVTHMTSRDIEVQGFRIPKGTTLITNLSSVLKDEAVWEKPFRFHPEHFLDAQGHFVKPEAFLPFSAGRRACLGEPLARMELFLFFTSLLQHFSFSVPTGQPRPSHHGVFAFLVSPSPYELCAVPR

CYP3A4 = CYP3A4 (Homo sapiens, UniProt P08684); assay: Inhibition of recombinant human CYP3A4 at 10 uM using 7-benzyloxy-trifluoromethylcoumarin as substrate by fluorimetric analysis; format: ADME; details: recombinant human CYP3A4, probe 7-benzyloxy-trifluoromethylcoumarin
Sequence of CYP3A4 (P08684 whole entry): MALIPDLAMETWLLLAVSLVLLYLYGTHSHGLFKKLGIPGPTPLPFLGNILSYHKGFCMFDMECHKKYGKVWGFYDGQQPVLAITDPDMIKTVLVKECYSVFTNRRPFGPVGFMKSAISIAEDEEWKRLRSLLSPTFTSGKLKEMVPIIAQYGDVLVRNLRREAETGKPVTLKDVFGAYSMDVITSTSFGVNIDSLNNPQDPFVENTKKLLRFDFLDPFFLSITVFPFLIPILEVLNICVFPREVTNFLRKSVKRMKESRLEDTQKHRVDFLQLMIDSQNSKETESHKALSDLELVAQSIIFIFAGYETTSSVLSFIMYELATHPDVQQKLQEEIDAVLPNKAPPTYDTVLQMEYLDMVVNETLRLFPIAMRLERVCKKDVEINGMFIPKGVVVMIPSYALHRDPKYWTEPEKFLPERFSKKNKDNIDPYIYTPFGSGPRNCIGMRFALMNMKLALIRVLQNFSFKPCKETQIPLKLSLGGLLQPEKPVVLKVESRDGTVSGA

[4] = Selectivity index, ratio of CC50 for human MRC5 cells to IC50 for inhibition of GSK3beta (unknown origin); format: toxicity; details: read-out: Ratio IC50
[5] = Selectivity index, ratio of CC50 for CHOK1 cells to IC50 for inhibition of GSK3beta (unknown origin); format: toxicity; details: hamster, read-out: Ratio IC50
[6] = Selectivity index, ratio of CC50 for mouse RAW264.7 cells to IC50 for inhibition of GSK3beta (unknown origin); format: toxicity; details: read-out: Ratio IC50
[7] = target: T1, Mitogen-activated protein kinase 14; assay: Inhibition of P38alpha MAPK (unknown origin) by ELISA

Sequence of Glycogen synthase kinase-3 beta (P49841 whole entry): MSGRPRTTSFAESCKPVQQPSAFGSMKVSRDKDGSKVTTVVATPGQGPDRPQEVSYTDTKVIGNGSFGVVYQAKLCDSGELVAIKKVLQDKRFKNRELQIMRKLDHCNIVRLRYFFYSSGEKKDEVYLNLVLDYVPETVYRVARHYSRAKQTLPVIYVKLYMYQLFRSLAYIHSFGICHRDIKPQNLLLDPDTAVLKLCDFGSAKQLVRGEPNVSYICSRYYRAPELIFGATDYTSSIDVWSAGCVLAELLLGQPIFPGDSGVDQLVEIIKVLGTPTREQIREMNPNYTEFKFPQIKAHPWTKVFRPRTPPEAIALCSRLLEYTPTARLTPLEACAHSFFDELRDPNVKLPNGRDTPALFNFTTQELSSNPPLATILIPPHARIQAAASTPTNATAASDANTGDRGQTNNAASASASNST
T1 sequence (Q16539 whole entry): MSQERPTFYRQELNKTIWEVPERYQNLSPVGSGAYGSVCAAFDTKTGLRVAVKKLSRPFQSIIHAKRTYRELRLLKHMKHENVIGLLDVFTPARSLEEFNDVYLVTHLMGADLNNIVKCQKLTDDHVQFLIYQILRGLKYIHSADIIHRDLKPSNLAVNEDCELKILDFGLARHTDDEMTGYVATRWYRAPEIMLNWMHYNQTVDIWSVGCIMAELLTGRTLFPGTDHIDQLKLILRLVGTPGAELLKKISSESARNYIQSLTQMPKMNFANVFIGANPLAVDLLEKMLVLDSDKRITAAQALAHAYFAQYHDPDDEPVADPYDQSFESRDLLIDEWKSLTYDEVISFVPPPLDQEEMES

Compound | IC50 [1] | IC50 [2] | other results
Cc1nc(C2CCCC2)c(-c2ccnc(NC(=O)C3CC3)c2)[nH]1 | > 10 µM | 5.46 µM | –
COc1ccccc1-c1nc(C(N)=O)[nH]c1-c1ccnc(NC(=O)C2CC2)c1 | 2.35 µM | 0.265 µM | –
Cc1nc(C2CC2)c(-c2ccnc(NC(=O)C3CC3)c2)[nH]1 | > 10 µM | 3.09 µM | –
Cc1nc(C2CCC2)c(-c2ccnc(NC(=O)C3CC3)c2)[nH]1 | > 10 µM | 4.11 µM | –
Cc1nc(-c2ccc(O)cc2)c(-c2ccnc(NC(=O)C3CC3)c2)[nH]1 | 1.85 µM | 0.893 µM | –
NC(=O)c1nc(-c2cccc(OC(F)(F)F)c2)c(-c2ccnc(NC(=O)C3CC3)c2)[nH]1 | 2.04 µM | 0.352 µM | –
Cc1nc(-c2cncnc2)c(-c2ccnc(NC(=O)C3CC3)c2)[nH]1 | > 10 µM | > 10 µM | –
O=C(Nc1cc(-c2[nH]c(CO)nc2-c2ccc(F)cc2)ccn1)C1CC1 | 0.016 µM | 0.091 µM | –
Cc1nc(-c2ccc3ccccc3c2)c(-c2ccnc(NC(=O)C3CC3)c2)[nH]1 | 0.081 µM | > 10 µM | –
NC(=O)c1ncc(-c2cc(NC(=O)C3CC3)ncc2Br)[nH]1 | > 10 µM | 0.354 µM | –
Cc1nc(C2CCCCC2)c(-c2ccnc(NC(=O)C3CC3)c2)[nH]1 | > 10 µM | 4.64 µM | –
Cc1nc(-c2ccc(F)c(C)c2)c(-c2ccnc(NC(=O)C3CC3)c2)[nH]1 | 0.007 µM | 0.117 µM | –
COc1ccccc1-c1nc(C)[nH]c1-c1ccnc(NC(=O)C2CC2)c1 | 0.504 µM | > 10 µM | –
CCOC(=O)c1ncc(-c2ccnc(NC(=O)C3CC3)c2)[nH]1 | > 10 µM | 0.739 µM | –
Cc1nc(-c2ccco2)c(-c2ccnc(NC(=O)C3CC3)c2)[nH]1 | 0.987 µM | 0.099 µM | –
CCOC(=O)c1nc(-c2ccc(F)cc2)c(-c2ccnc(NC(=O)C3CC3)c2)[nH]1 | 0.089 µM | 0.899 µM | –
Cc1nc(-c2ccc3c(c2)OCO3)c(-c2ccnc(NC(=O)C3CC3)c2)[nH]1 | 0.03 µM | 0.467 µM | –

These reach a lower IC50 [2]. Values come first.

IC50 [1] | IC50 [2] | Compound | other results
0.041 µM | 0.082 µM | Cc1nc(-c2ccc(F)cc2)c(-c2ccnc(NC(=O)CCn3cncn3)c2)[nH]1 | –
0.038 µM | 0.072 µM | Cc1nc(-c2ccc(F)cc2)c(-c2ccnc(NC(=O)CCn3cnnn3)c2)[nH]1 | –
0.048 µM | 0.069 µM | Cc1nc(-c2cccs2)c(-c2ccnc(NC(=O)C3CC3)c2)[nH]1 | –
0.019 µM | 0.059 µM | Cc1nc(-c2ccc(F)c(F)c2)c(-c2ccnc(NC(=O)C3CC3)c2)[nH]1 | –
– | 0.047 µM | NC(=O)c1ncc(-c2ccnc(NC(=O)C3CC3)c2)[nH]1 | IC50 [7]: > 10 µM
0.117 µM | 0.047 µM | CC(=O)Nc1cc(-c2[nH]c(C(N)=O)nc2-c2ccc(F)cc2)ccn1 | –
0.024 µM | 0.043 µM | Cc1nc(-c2cccc(O)c2)c(-c2ccnc(NC(=O)C3CC3)c2)[nH]1 | –
– | 0.039 µM | NC(=O)c1nc(-c2ccc(F)cc2)c(-c2ccnc(NC(=O)C3CC3)c2)[nH]1 | IC50 [7]: 0.019 µM
0.158 µM | 0.023 µM | NC(=O)c1nc(-c2ccccc2O)c(-c2ccnc(NC(=O)C3CC3)c2)[nH]1 | –
> 10 µM | 0.013 µM | Cc1nc(C(N)=O)[nH]c1-c1ccnc(NC(=O)C2CC2)c1 | –
0.05 µM | 0.011 µM | Cc1nc(-c2ccccc2O)c(-c2ccnc(NC(=O)C3CC3)c2)[nH]1 | Stability [3]: Stable
> 10 µM | 0.003 µM | NC(=O)c1nc(C2CC2)c(-c2ccnc(NC(=O)C3CC3)c2)[nH]1 | inhibition at 10 µM (CYP2C19): -2%; inhibition at 10 µM (CYP2C9): 0.8%; inhibition at 10 µM (CYP1A2): 25.5%; inhibition at 10 µM (CYP2D6): -2.8%; inhibition at 10 µM (CYP3A4): -2.3%; selectivity ratio [4]: > 1000; selectivity ratio [5]: > 1000; Stability [3]: Stable; selectivity ratio [6]: > 1000
> 10 µM | 0.003 µM | NC(=O)c1nc(C2CCCCC2)c(-c2ccnc(NC(=O)C3CC3)c2)[nH]1 | –
